One may read the IC50 as the concentration at which inhibition is half-maximal. The CC50 is the concentration at which the toxic effect on the cells reaches its halfway point. A higher CC50 goes with better tolerance by the cells. One may read the EC95 as the point of the concentration-response curve where the effect stands at 95%. Lower therefore signals greater potency. Usually EC50 stands for the concentration needed to bring the measured effect to its halfway point.

The structures appear in SMILES notation. Where two headings read alike, the source gives them in different places. Where only a bound is given, the exact number is not on record here.

The values below come from patent US5834506A, “Dihydropyrones with improved antiviral activity” (Warner-Lambert Company, priority 1997, dated 1998).

One data set has as its target T1, HIV-1 protease (Human immunodeficiency virus type 1 group M subtype B, UniProt P04585).
T1 construct: Recombinant HIV-1 protease (>96% purity); purchased Bachem Bioscience Inc. (King of Prussia, PA)
Description: biochemical. The note with it: read-out: Inhib of HIV-Protease IC50. From the text: The testing of specific 5,6-dihydropyrones as inhibitors of the HIV aspartyl protease, based on the study of the hydrolysis of an undecapeptide enzyme substrate, and the testing of the 5,6-dihydropyrones as inhibitors of viral growth and infectivity, based on the study of infection of H9 cell lines by the HIV-1iiib strain, are also disclosed. […] The methods employed follow the procedures of Tummino, et al. (Archives of Biochemistry and Biophysics 1995, 316, 523).
(§1) The compounds of the present invention were evaluated for their in vitro inhibition of HIV-1 protease and for their antiviral efficacy in HIV infected lymphocytes.
Recombinant HIV-1 protease (>96% purity) and HIV protease substrate III (the undecapeptide H-His-Lys-Ala-Arg-Val-Leu-Nph-Glu-Ala-Nle-Ser-NH2,>97% purity) were purchased from Bachem Bioscience Inc. (King of Prussia, PA).
The methods employed follow the procedures of Tummino, et al. (Archives of Biochemistry and Biophysics 1995, 316, 523). […] (total volume, 100 μl). […] The final inhibitor concentrations used were 0 (0.1, 0.2, in some experiments), 0.5, 1, 2, 5, 10, 20, 50, and 100 μM. The solution was mixed, incubated for 5 minutes and the reaction quenched by addition of trifluoracetic acid, 2% final. The (leu-p-nitro-phe) bond of the substrate is cleaved by the enzyme and substrate and products separated by reverse-phase HPLC. Absorbance was measured at 220 nm, peak areas determined, and percentage conversion to product used to calculate percentage control (=[% conversion (+inhibitor)/% conversion (-inhibitor)]×100).

Data set [1] in a line: Cellular toxicity in uninfected CEM cells (TC50). Format: cell-based. The following applies: human, inhibits 50% of the viability of uninfected cells. Here is the method: (§2) Compounds were tested in lymphocyte derived CEM cells using the XTT cytopathic procedures and were performed at Southern Research Institute (Buckheit, et. al. Antiviral Res. 1993, 21, 247; see also Weislow, et al. J Nat. Cancer Inst., 1989, 81, 577). Compound concentrations were 0.32, 1, 3.2, 10, 32 and 100 uM. The EC50 represents the concentration of agent which reduces HIV cytopathic effects 50% relative to untreated control. EC95 represents the concentration of agent protecting the cells 95% relative to untreated control. Cellular toxicity of the agents are estimated from the TC50 which represents the concentration of the agent which inhibits 50% of the viability of uninfected cells.

Data set [2] relates to HIV in lymphocyte derived CEM cells. Briefly: Cellular Infection Assay, antiviral efficacy in HIV infected CEM cells (XTT cytopathic procedure). It is filed as cell-based. The note with it: Human immunodeficiency virus 1, CCRF-CEM; for EC95: protecting the cells 95% relative to untreated control; for EC50: read-out: Antiviral Efficacy EC50. The protocol:
as §1, §2
A general note: Tetrazolium dyes change colour on reduction, which living cells bring about.

Where [3] appears, read: 6.0 nM HIV-1 protease, 40 μM substrate III, 37° C., 5 minutes.
The mark [4] stands for this setting: CEM cells, reduces HIV cytopathic effects 50% relative to untreated control.

`Cc1cc(SC2=C(O)C[C@@](CCc3ccccc3)(c3ccccc3)OC2=O)c(C(C)(C)C)cc1CO` [Example 17, 3-(tert-Butyl4-hydroxymethyl-5-methyl-phenylsulfanyl)-4-hydroxy-6-phenethyl-6-phenyl-5,6-dihydro-pyran-2-one (S isomer)]: at HIV-1 protease (setting [3]), the IC50 was found to be 0.0039 µM. In addition, in data set [1], the CC50 was determined as 60 µM. Further, the EC95 in data set [2] (CEM cells) was 7.5 µM. In addition, the EC50 in data set [2] (setting [4]) was determined as 1.9 µM.
On the same counts, the results for `Cc1cc(SC2=C(O)CC(CCc3ccc(O)cc3)(CCc3ccc(O)cc3)OC2=O)c(C(C)(C)C)cc1N` [Example 20, 3-(4-Amino-2-tert-butyl-5-methyl-phenylsulfanyl)-4-hydroxy-6,6-bis[2-(4-hydroxy-phenyl)ethyl]-5,6-dihydro-pyran-2-one] are 0.0029 µM, 65 µM, 9.6 µM and 5 µM.
As for `Cc1cc(SC2=C(O)CC(CCc3cccc(O)c3)(CCc3cccc(O)c3)OC2=O)c(C(C)(C)C)cc1CO` [Example 21, 3-(2-tert-Butyl-4-hydroxymethyl-5-methyl-phenylsulfanyl)-4-hydroxy-6,6-bis-[2-(3-hydroxy-phenyl)ethyl]-5,6-dihydro-pyran-2-one], the IC50 on HIV-1 protease (setting [3]) is 0.0021 µM. The molecule further came in with a CC50 in data set [1] of 66 µM. In data set [2] (CEM cells), this molecule showed an EC95 of 9.3 µM. Moreover, the EC50 in data set [2] (setting [4]) was found to be 4.8 µM.
On the same counts, the results for `Cc1cc(SC2=C(O)CC(CCc3cccc(O)c3)(CCc3cccc(O)c3)OC2=O)c(C(C)(C)C)cc1OS(=O)(=O)N(C)C` [Example 22, Dimethyl-sulfamic acid 5-tert-butyl-4-{4-hydroxy-6,6-bis-[2-(3-hydroxy-phenyl)-ethyl]-2-oxo-5,6-dihydro-2H-pyran-3-yisulfanyl}-2-methyl-phenyl ester] are 0.009 µM, 66 µM, 8.3 µM and 2.3 µM.
As for `COc1cc(CCC2(CCc3ccc(O)c(OC)c3)CC(O)=C(Sc3cc(C)c(OCCO)cc3C(C)(C)C)C(=O)O2)ccc1O` [Example 23, 3-[2-tert-Butyl-4-(2-hydroxy-ethoxy)-5-methyl-phenylsulfanyl]-4-hydroxy-6,6-bis [2-(4-hydroxy-3-methoxy-phenyl)-ethyl]-5,6-dihydro-pyran-2-one], the IC50 on HIV-1 protease (setting [3]) stood at 0.0034 µM. In data set [1], this molecule showed a CC50 of 61 µM. In data set [2] (CEM cells), this molecule had an EC95 of 7.9 µM. For the same molecule, the EC50 in data set [2] (setting [4]) turned out to be 2 µM.
Regarding `Cc1cc(SC2=C(O)CC(CCc3ccccc3)(c3ccc(OCCN4CCNCC4)cc3)OC2=O)c(C(C)(C)C)cc1OS(=O)(=O)N(C)C` (centres unmarked) [Example 26, Dimethyl-sulfamic acid 5-tert-butyl-4-{4-hydroxy-2-oxo-6-phenethyl-6-[4-(2-piperazin-1-yl-ethoxy)-phenyl]-5,6-dihydro-2H-pyran-3-ylsulfanyl}-2-methyl-phenyl ester], on HIV-1 protease (setting [3]), the IC50 stood at 0.0051 µM. For the same molecule, the CC50 in data set [1] is > 100 µM. In data set [2], the EC50 stood at 5.1 µM. The same molecule yielded an EC95 in data set [2] (CEM cells) of 9.3 µM.
`CCNS(=O)(=O)Oc1cc(C(C)(C)C)c(SC2=C(O)CC(CCc3ccc(O)cc3)(CCc3ccc(O)cc3)OC2=O)cc1C` [Example 28]: the IC50 at HIV-1 protease (setting [3]) stood at 0.0013 µM. In data set [1], this molecule returned a CC50 of 67 µM. The molecule further showed an EC95 in data set [2] (CEM cells) of 9.4 µM. The EC50 in data set [2] (setting [4]) was determined as 5.5 µM.
On the same counts, the results for `CCNS(=O)(=O)Oc1cc(C(C)(C)C)c(SC2=C(O)CC(CCc3ccc(N)cc3)(CCc3ccc(N)cc3)OC2=O)cc1C` [Example 29, Ethyl-sulfamic acid 5-tert-butyl-4-{6,6-bis-[2-(4-amino-phenyl)-ethyl]-4-hydroxy-2-oxo-5,6-dihydro-2H-pyran-3-ylsulfanyl}2-methyl-phenyl ester] are 0.0018 µM, 66 µM, 2.9 µM and 1.2 µM.
Regarding `Cc1cc(SC2=C(O)CC(CCc3ccc(O)cc3)(CCc3ccc(O)cc3)OC2=O)c(C(C)(C)C)cc1OS(=O)(=O)N1CCN(C)CC1` [Example 30, 4-Methyl-piperazine-1-sulfonic acid 5-tert-butyl-4-{4-hydroxy-6,6-bis-[2-(4-hydroxy-phenyl)-ethyl]-2-oxo-5,6-dihydro-2H-pyran-3-ylsulfanyl}-2-methyl-phenyl ester], the IC50 at HIV-1 protease (setting [3]) worked out at 0.0055 µM. The molecule also registered a CC50 in data set [1] of 66 µM. In data set [2] (CEM cells), this molecule gave a 95% effect concentration (EC95) of 9.3 µM. For the same molecule, in data set [2] (setting [4]), the EC50 turned out to be 5 µM.
For `Cc1cc(SC2=C(O)CC(C)(CCc3ccc(O)cc3)OC2=O)c(C(C)(C)C)cc1OS(=O)(=O)N1CCN(C)CC1` (centres unmarked) [Example 31, 4-Methyl-piperazine-1-sulfonic acid 5-tert-butyl-4-{4-hydroxy-6-[2-(4-hydroxy-phenyl)-ethyl]-6-methyl-2-oxo-5,6-dihydro-2H-pyran-3-ylsulfanyl}-2-methyl-phenyl ester], in that order: 0.0071 µM, > 100 µM, 8.4 µM and 2.3 µM.
Consider `Cc1ccc(C(C)(C)C)c(SC2=C(O)CC(CCc3ccccc3)(c3ccc(OCCN4CCNCC4)cc3)OC2=O)c1` (centres unmarked) [Example 35, 3-(2-tert-Butyl-5-methyl-phenylsulfanyl)-4-hydroxy-6-phenethyl-6-[4-(2-piperazin-1-yl-ethoxy)-phenyl]-5,6-dihydro-pyran-2-one], for which, on HIV-1 protease (setting [3]), the IC50 is 0.0063 µM. Besides, half-maximal cytotoxicity in data set [1] (CC50) was put at 84 µM. This molecule yielded an EC95 in data set [2] (CEM cells) of 8 µM. The EC50 in data set [2] (setting [4]) stood at 3.5 µM.
On the same counts, the results for `Cc1cc(SC2=C(O)CC(CCc3ccc(O)cc3)(c3ccccc3)OC2=O)c(C(C)(C)C)cc1CO` (centres unmarked) [Example 36, 3-(2-tert-Butyl-4-hydroxymethyl-5-methyl-phenylsulfanyl)-4-hydroxy-6-[2-(4-hydroxy-phenyl)-ethyl]-6-phenyl-5,6-dihydro-pyran-2-one] are 0.0016 µM, > 100 µM, 20 µM and 4.7 µM.
Consider `Cc1cc(SC2=C(O)CC(CCc3cccc(O)c3)(c3ccccc3)OC2=O)c(C(C)(C)C)cc1CO` (centres unmarked) [Example 37, 3-(2-tert-Butyl-4-hydroxymethyl-5-methyl-phenylsulfanyl)-4-hydroxy-6-[2-(3-hydroxy-phenyl)-ethyl]-6-phenyl-5,6-dihydro-pyran-2-one], for which the IC50 on HIV-1 protease was 0.0025 µM. Further, the CC50 in data set [1] is > 100 µM. In addition, in data set [2] (setting [4]), the EC50 came to 6.1 µM.
As for `Cc1cc(SC2=C(O)C[C@@](CCc3ccc(O)cc3)(C(C)C)OC2=O)c(C(C)(C)C)cc1CO` [Example 38, (S)-3-(2-tert-Butyl-4-hydroxymethyl-5-methyl-phenylsulfanyl)-4-hydroxy-6-[2-(4-hydroxy-phenyl)-ethyl]-6-isopropyl-5,6-dihydro-pyran-2-one (+)], on HIV-1 protease, the IC50 came out at 0.001 µM. Moreover, the CC50 in data set [1] is > 100 µM. The EC95 in data set [2] (CEM cells) came out at 1 µM. In addition, in data set [2] (setting [4]), the EC50 is < 0.3 µM.
Regarding `Cc1cc(SC2=C(O)CC(CCc3cccc(O)c3)(C3CCCC3)OC2=O)c(C(C)(C)C)cc1CO` (centres unmarked) [Example 39, 3-(2-tert-Butyl-4-hydroxymethyl-5-methyl-phenylsulfanyl)-6-cyclopentyl-4-hydroxy-6-[2-(3-hydroxy-phenyl)-ethyl]-5,6-dihydro-pyran-2-one], at HIV-1 protease (setting [3]), the IC50 was 0.0019 µM. The CC50 in data set [1] was > 100 µM. In data set [2] (CEM cells), this molecule had an EC95 of 0.6 µM. Moreover, the EC50 in data set [2] (setting [4]) is < 0.3 µM.
On the same counts, the results for `Cc1cc(SC2=C(O)CC(C)(CCc3ccc(O)cc3)OC2=O)c(C(C)(C)C)cc1OS(N)(=O)=O` (centres unmarked) [Example 43] are 0.0018 µM, 69 µM, 9.4 µM and 5.2 µM.
For `Cc1cc(SC2=C(O)CC(CCc3ccccc3)(c3ccc(OCCO)cc3)OC2=O)c(C(C)(C)C)cc1OS(=O)(=O)N1CCN(C)CC1` (centres unmarked) [Example 46], in that order: 0.012 µM, 58 µM, 9.8 µM and 5.4 µM.
Take `CCNS(=O)(=O)Oc1cc(C(C)(C)C)c(SC2=C(O)CC(CCc3ccc(O)c(OC)c3)(c3ccc(OCCO)cc3)OC2=O)cc1C` (centres unmarked) [Example 48]: on HIV-1 protease (setting [3]), the IC50 was found to be 0.0024 µM. For the same molecule, the CC50 in data set [1] was > 100 µM. This molecule also showed a concentration for an effect of 95% (EC95) in data set [2] (CEM cells) of 26 µM. Further, the EC50 in data set [2] (setting [4]) came to 6.9 µM.
